Source: patent US12503471B2, “Triazatricycle compounds for the treatment of autoimmune disease” (Hoffmann-La Roche Inc., priority 2019, dated 2025)

Molecular target: T1, human TLR7 (Homo sapiens, UniProt Q9NYK1)
T1 construct: host or cells: HEK293 (HEK-Blue hTLR7)
T1 sequence (Q9NYK1 27-1049): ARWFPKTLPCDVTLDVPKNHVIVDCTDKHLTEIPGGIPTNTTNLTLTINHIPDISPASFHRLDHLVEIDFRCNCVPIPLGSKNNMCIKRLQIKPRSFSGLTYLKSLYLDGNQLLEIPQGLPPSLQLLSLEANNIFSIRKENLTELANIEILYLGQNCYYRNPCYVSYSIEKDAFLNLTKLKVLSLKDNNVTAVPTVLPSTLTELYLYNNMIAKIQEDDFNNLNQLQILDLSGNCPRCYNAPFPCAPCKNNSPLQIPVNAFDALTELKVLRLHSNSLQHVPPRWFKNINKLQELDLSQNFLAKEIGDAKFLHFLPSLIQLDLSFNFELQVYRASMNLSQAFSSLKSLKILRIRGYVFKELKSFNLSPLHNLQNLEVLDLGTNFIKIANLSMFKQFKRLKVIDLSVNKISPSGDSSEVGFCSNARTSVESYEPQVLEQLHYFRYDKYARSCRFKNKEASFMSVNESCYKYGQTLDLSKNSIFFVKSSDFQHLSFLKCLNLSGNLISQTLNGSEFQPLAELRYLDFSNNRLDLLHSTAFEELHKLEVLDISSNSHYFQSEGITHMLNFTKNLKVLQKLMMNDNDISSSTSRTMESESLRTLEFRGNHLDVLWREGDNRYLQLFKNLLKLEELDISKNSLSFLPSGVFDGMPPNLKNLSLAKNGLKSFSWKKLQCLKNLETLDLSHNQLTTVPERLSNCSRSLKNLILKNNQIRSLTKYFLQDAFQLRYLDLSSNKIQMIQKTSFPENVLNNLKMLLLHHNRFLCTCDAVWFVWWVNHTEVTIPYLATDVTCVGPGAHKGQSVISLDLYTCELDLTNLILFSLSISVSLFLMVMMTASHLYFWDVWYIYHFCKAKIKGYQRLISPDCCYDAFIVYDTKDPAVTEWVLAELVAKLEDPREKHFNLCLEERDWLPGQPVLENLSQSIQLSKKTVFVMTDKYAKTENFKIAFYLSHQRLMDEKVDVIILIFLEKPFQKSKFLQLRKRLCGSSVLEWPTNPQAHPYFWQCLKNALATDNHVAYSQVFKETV
Assay: HEK293-Blue-hTLR-7 cells assay
Assay type: cell-based
Conditions: HEK293-Blue-hTLR7 cells, R848 stimulation, 20 hrs, SEAP reporter; read-out: HEK/hTLR7 IC50
From the text: HEK293-Blue-hTLR-7 Cells Assay:
A stable HEK293-Blue-hTLR-7 cell line was purchased from InvivoGen (Cat. #: hkb-htlr7, San Diego, Calif., USA). These cells were originally designed for studying the stimulation of human TLR7 by monitoring the activation of NF-κB. A SEAP (secreted embryonic alkaline phosphatase) reporter gene was placed under the control of the IFN-β minimal promoter fused to five NF-κB and AP-1-binding sites. The SEAP was induced by activating NF-κB and AP-1 via stimulating HEK-Blue hTLR7 cells with TLR7 ligands. Therefore the reporter expression was declined by TLR7 antagonist under the stimulation of a ligand, such as R848 (Resiquimod), for incubation of 20 hrs. The cell culture supernatant SEAP reporter activity was determined using QUANTI-Blue™ kit (Cat. #: rep-qbl, Invivogen, San Diego, Ca, USA) at a wavelength of 640 nm, a detection medium that turns purple or blue in the presence of alkaline phosphatase.
HEK293-Blue-hTLR7 cells were incubated at a density of 250,000˜450,000 cells/mL in a volume of 170 μL in a 96-well plate in Dulbecco's Modified Eagle's medium (DMEM) containing 4.5 g/L glucose, 50 U/mL penicillin, […], […], 2 mM L-glutamine, 10% (v/v) heat-inactivated fetal bovine serum with addition of 20 μL test compound in a serial dilution in the presence of final DMSO at 1% and 10 μL of 20 uM R848 in above DMEM, perform incubation under 37° C. in a CO2 incubator for 20 hrs. Then 20 μL of the supernatant from each well was incubated with 180 μL Quanti-blue substrate solution at 37° C. for 2 hrs and the absorbance was read at 620-655 nm using a spectrophotometer. The signaling pathway that TLR7 activation leads to downstream NF-κB activation has been widely accepted, and therefore similar reporter assay was modified for evaluating TLR7 antagonist.

| SMILES | IC50 [nM] |
| --- | --- |
| [2H]c1ccc2c(N3C[C@@H](C)N4Cc5nc(N6CC[C@@H](OC)[C@H](N)C6)ccc5[C@H]4C3)ccc(C#N)c2n1 [Example 15, 5-[(2S,6R)-11-[(3R,4R)-3-amino-4-methoxy-1-piperidyl]-6-methyl-4,7,10-triazatricyclo[7.4.0.02,7]trideca-1(9),10,12-trien-4-yl]-2-deuterio-quinoline-8-carbonitrile] | 2.6 |
| [2H]c1ccc2c(N3C[C@@H](C)N4Cc5nc(O[C@H]6CCNC6)ccc5[C@H]4C3)ccc(C#N)c2n1 [Example 25, 2-Deuterio-5-[(2S,6R)-6-methyl-11-[(3S)-pyrrolidin-3-yl]oxy-4,7,10-triazatricyclo[7.4.0.02,7]trideca-1(9),10,12-trien-4-yl]quinoline-8-carbonitrile] | 1 |
| [2H]c1ccc2c(N3C[C@@H](C)N4Cc5nc(N6CC[C@H]7CNC[C@H]76)ccc5[C@H]4C3)ccc(C#N)c2n1 [Example 10, 5-[(2S,6R)-11-[(3aS,6aS)-3,3a,4,5,6,6a-hexahydro-2H-pyrrolo[2,3-c]pyrrol-1-yl]-6-methyl-4,7,10-triazatricyclo[7.4.0.02,7]trideca-1(9),10,12-trien-4-yl]-2-deuterio-quinoline-8-carbonitrile] | 1.9 |
| CC1(N)CCN(c2ccc3c(n2)CN2CCN(c4ccc(C#N)c5ncccc45)C[C@@H]32)CC1 [Example 4A, 5-[(2R)-11-(4-amino-4-methyl-1-piperidyl)-4,7,10-triazatricyclo[7.4.0.02,7]trideca-1(9),10,12-trien-4-yl]quinoline-8-carbonitrile] | 8.7 |
